The source made the active and inactive calls. The rule behind the calls is not given here.
Tests used:
Echinococcus granulosus [1] = experiment: Parasiticidal activity against Echinococcus granulosus protoscolices […] by eosin exclusion test; type: functional; conditions: 1152 h, time 48 day
Echinococcus granulosus [2] = experiment: Parasiticidal activity against Echinococcus granulosus protoscolices assessed as death rate at 5 uM incubated for 4 days by eosin exclusion test; type: functional; conditions: time 4 day
Echinococcus granulosus [3] = experiment: Parasiticidal activity against Echinococcus granulosus protoscolices assessed as lethal effect incubated for 4 days by eosin exclusion test; type: functional, organism-based; conditions: dose 0.5-5 µM, time 4.0 day
Echinococcus granulosus [4] = experiment: Parasiticidal activity against Echinococcus granulosus protoscolices assessed as death rate at 0.5 uM incubated for 4 days by eosin exclusion test; type: functional; conditions: time 4 day
Echinococcus granulosus [5] = experiment: Parasiticidal activity against Echinococcus granulosus protoscolices assessed as increase in death rate at 5 uM incubated for 4 days by darker staining-based light microscopy; type: functional, organism-based; conditions: time 4.0 day
Echinococcus granulosus [6] = experiment: Parasiticidal activity against Echinococcus granulosus protoscolices assessed as appearance of body shrank at 5 uM incubated for 4 days by scanning electron microscopy analysis; type: functional, organism-based; conditions: time 4.0 day
Echinococcus granulosus [7] = experiment: Parasiticidal activity against Echinococcus granulosus protoscolices assessed as appearance of rostellum hooks fall off at 5 uM incubated for 4 days by scanning electron microscopy analysis; type: functional, organism-based; conditions: time 4.0 day
Echinococcus granulosus [8] = experiment: Parasiticidal activity against Echinococcus granulosus protoscolices assessed as appearance of blurred marginal structure at 5 uM incubated for 4 days by scanning electron microscopy analysis; type: functional, organism-based; conditions: time 4.0 day
Echinococcus granulosus [9] = experiment: Parasiticidal activity against Echinococcus granulosus protoscolices assessed as partial vacuolar change at 5 uM incubated for 4 days by scanning electron microscopy analysis; type: functional, organism-based; conditions: time 4.0 day
Echinococcus granulosus [10] = experiment: Parasiticidal activity against Echinococcus granulosus protoscolices assessed as degeneration of outer skin at 5 uM incubated for 4 days by scanning electron microscopy; type: functional, organism-based; conditions: time 4.0 day
Echinococcus granulosus [11] = experiment: Parasiticidal activity against Echinococcus granulosus protoscolices assessed as loss of hooks at 5 uM incubated for 4 days by scanning electron microscopy; type: functional, organism-based; conditions: time 4.0 day
Echinococcus granulosus [12] = experiment: Parasiticidal activity against Echinococcus granulosus protoscolices assessed as loss of suckers at 5 uM incubated for 4 days by scanning electron microscopy; type: functional; conditions: time 4 day
Echinococcus granulosus [13] = experiment: Parasiticidal activity against Echinococcus granulosus assessed as collapse of germinal layers at 100 uM incubated for 4 days by scanning electron microscopy; type: functional, organism-based; conditions: time 4.0 day
Echinococcus granulosus [14] = experiment: Parasiticidal activity against Echinococcus granulosus cyst assessed as seperation from cuticle at 100 uM incubated for 4 days by scanning electron microscopy; type: functional, organism-based; conditions: time 4.0 day
Echinococcus granulosus [15] = experiment: Parasiticidal activity against Echinococcus granulosus cyst assessed as formation of dense aggregates at 100 uM incubated for 4 days by scanning electron microscopy; type: functional, organism-based; conditions: time 4.0 day
[16] = Cmax in Wistar rat at 5 mg/kg, iv by HPLC analysis; type: ADME, organism-based; set-up: dose 5 mg/kg, route iv; conditions: in vivo
[17] = AUC (0 to infinity) in Wistar rat at 5 mg/kg, iv by HPLC analysis; type: ADME, organism-based; set-up: dose 5 mg/kg, route iv; conditions: in vivo
[18] = Oral bioavailability in Wistar rat at 50 mg/kg, […] by HPLC analysis; type: ADME, organism-based; conditions: in vivo
Echinococcus granulosus [19] = experiment: Parasiticidal activity against Echinococcus granulosus protoscolices assessed as lethal effect at 0.5 to 5 uM by eosin exclusion test; type: functional, organism-based; conditions: dose 0.5-5 µM, TDE = time-dependent effect
Echinococcus granulosus [20] = experiment: Potency index, ratio of Harmine LC50 to test compound LC50 for Parasiticidal activity against Echinococcus granulosus protoscolices; type: functional
Echinococcus granulosus [21] = experiment: Parasiticidal activity against Echinococcus granulosus protoscolices assessed as change in ultrastructure at 5 uM incubated for 4 days by scanning electron microscopy; type: functional, organism-based; conditions: time 4.0 day

For `Cc1nc(NC(=O)c2ccc(CN3CCC(N4CCCCC4)CC3)cc2)cc2c1[nH]c1ccccc12`, the LC50 (Echinococcus granulosus [1]) was 2390 nM, the Activity (Echinococcus granulosus [2]) was >90% and the Activity (Echinococcus granulosus [3]) was “Dose-Dependent Effect”. The Activity (Echinococcus granulosus [4]) was >50%, the Activity (Echinococcus granulosus [5]) was “Active” and the Activity (Echinococcus granulosus [6]) was “Active”. The Activity (Echinococcus granulosus [7]) was “Active”, the Activity (Echinococcus granulosus [8]) was “Active” and the Activity (Echinococcus granulosus [9]) was “Active”. The Activity (Echinococcus granulosus [10]) was “Active”, the Activity (Echinococcus granulosus [11]) was “Active” and the Activity (Echinococcus granulosus [12]) was 59.4%. For the same compound, the Activity (Echinococcus granulosus [13]) was “Active”, the Activity (Echinococcus granulosus [14]) was “Active” and the Activity (Echinococcus granulosus [15]) was “Active”. It also gave a Cmax [16] of 1120 ng/mL, an AUC(0-inf) [17] of 1410 ng·h/mL and a bioavailability [18] of 15.5%. The Activity (Echinococcus granulosus [19]) was “Tde”, the RatioLC50 (Echinococcus granulosus [20]) was 84 and the Activity (Echinococcus granulosus [21]) was “Active”.

Reference: ChEMBL document CHEMBL5344429, “1,3-Substituted β-Carboline Derivatives as Potent Chemotherapy for the Treatment of Cystic Echinococcosis” (J Med Chem, 2023)
